{"source": "PubChem BioAssay AID2060610", "about": "(Molecular Pharmacology Branch, DTP, NCI, 2025)", "tested_on": "616215-338-R-J1-PDC complex spheroids, viability % test/control", "assay": "Anticancer human tumor 616215-338-R-J1-PDC patient-derived colon adenocarcinoma cell line growth inhibition [CLK]", "conditions": "for viability, T/C: stronger effect = lower value", "from_the_text": "A high-throughput screen of multi-cell type tumor spheroids was designed to identify active combinations of […] and targeted small molecules. Complex spheroids include a stromal component modeled by human endothelial cells (HUVEC) and fibroblasts modeled by human mesenchymal stem cells (MSCs). The concentration ranges selected for each drug and investigational agent were based upon clinically achievable concentrations if the clinical Cmax of the agent was known.\nCompounds. The drugs and investigational agents: cirtuvivint (SM08502; NSC835563), CC-671 (NSC850746), vemurafenib (NSC761431), tapotoclax (NSC804041), sotorasib (NSC818433), adagrasib (NSC831453), MRTX-1133 (NSC836407), BAY2416964 (NSC825713), copanlisib (NSC816437), inavolisib (NSC800729), abemaciclib (NSC768073), osimertinib (NSC779217), entinostat (NSC756642), eltanexor (KPT-8602, NSC794443), venetoclax (NSC766270), ceralasertib (NSC777638), bortezomib (NSC756655), olaparib (NSC753686), talazoparib (NSC767125), alisertib (NSC759677), peposertib (NSC802822), gemcitabine (NSC613327), 5-fluorouracil (NSC19893), SN-38 (NSC673596), oxaliplatin (NSC266046), paclitaxel (NSC125973), and doxorubicin (NSC123127), were obtained from the National Cancer Institute (NCI) Developmental Therapeutics Program Chemical Repository. The FDA-approved anticancer drug set is available from the Developmental Therapeutics Program at https://dtp.cancer.gov/organization/dscb/obtaining/available plates.htm. […] The stock solutions were prepared in dimethyl sulfoxide (DMSO, Sigma-Aldrich, St. Louis, MO, cat. D2650), except for the platinum complexes which were prepared in saline (Quality Biological, Gaithersburg, MD, cat. 114-055-101), at 800-fold the tested concentration and stored at -70 degrees C prior to their use. All drugs and investigational agents were tested over a range starting from a high concentration at or near the clinical Cmax and decreasing in half-log increments. If the clinical Cmax for an agent had not been determined, the highest concentration tested was 10 microM.\nCell Culture. All cells were maintained in an incubator at 37 degrees C and 5% CO2 with 95% humidity. The PDC lines were cultured according to standard operating procedures established by the NCI PDMR. Briefly, all PDCs were thawed and cultured in Matrigel-coated flasks prepared with a working solution of 1X Ham's F-12 nutrient mix, without supplementation (Invitrogen, Waltham, MA, cat. 11765054), 100 U/mL penicillin-streptomycin (Invitrogen, cat. 15140122), and 2.5% Matrigel (Corning Inc., Corning, NY, cat. 354248) for the first three passages. The 947758-054-R-J2-PDC line was cultured in 6B/Colon 1A media, which includes advanced DMEM/F-12 (Thermo Fisher Scientific, cat. 12634028), 10 mM HEPES (Thermo Fisher Scientific, cat. 15630080), 1X GlutaMAX supplement (Thermo Fisher Scientific, cat. 35050061), 0.1 mg/mL primocin (InvivoGen, cat. ant-pm-2), 10% defined fetal bovine serum, heat inactivated (HyClone Laboratories Inc., cat. SH30070.03HI), 1.25 mM N-Acetyl-L-cysteine (Sigma-Aldrich, cat. A9165), 10 mM nicotinamide (Sigma-Aldrich, cat. N0636), 1X B-27 supplement (Thermo Fisher Scientific, cat. 17504044), 1X N-2 supplement (Thermo Fisher Scientific, cat. 17502048), and 10 microM Y-27632 dihydrochloride (Tocris Bioscience, cat. 1254). The 876862-298-R-J1-PDC was cultured in 6E media, which includes all 6B/Colon 1A media components plus 50% L-WRN conditioned media (ATCC, cat. CRL-3276), 50 ng/mL recombinant human EGF recombinant protein (hEGF; Thermo Fisher Scientific, cat. PHG0311), 10 ng/mL recombinant human fibroblast growth factor 10 (hGFG-10; PeproTech, cat. 100-26), 1 ng/mL recombinant human fibroblast growth factor 2 (hFGF-2; PeproTech, cat. 100-18B), and 1 µM prostaglandin E2 (PGE2; Tocris, cat. 2296). The 227483-062-R1-J1-PDC line was cultured in Panc media, containing all 6E components except hFGF-2, with the addition of 500 nM SB-431542 (Selleckchem, cat. S1067) and 10 nM gastrin (Tocris, cat. 3006). […]", "note": "Where “and” joins values, the source holds several entries; their conditions need not be identical. Equal values may be shown once.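 Further: spheroids exposed to agents for 7 days.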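 Wherever viability, T/C is given: 100% = DMSO vehicle wells.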"}
{"smiles": "CC(C)CC(NC(=O)C(Cc1ccccc1)NC(=O)c1cnccn1)B(O)O", "note": "(stereo not drawn) + CN1CCN(c2cc(C(=O)Nc3cc4cc(-c5cnn(C)c5)ccc4cn3)ccn2)CC1", "values": [{"measurement": "IC50", "setting": "curve of first compound, second compound 0.0316 µM", "result": 5.54, "unit": "nM"}, {"measurement": "IC50", "setting": "curve of first compound, second compound 0.1 µM", "result": 5.8, "unit": "nM"}, {"measurement": "IC50", "setting": "curve of first compound, second compound 0.316 µM", "result": "< 0.949", "unit": "nM"}, {"measurement": "IC50", "setting": "curve of first compound, second compound 1 µM", "result": "< 0.949", "unit": "nM"}, {"measurement": "IC50", "setting": "curve of first compound, second compound 3.16 µM", "result": "< 0.949", "unit": "nM"}, {"measurement": "IC50", "setting": "curve of first compound, second compound 10 µM", "result": "< 0.949", "unit": "nM"}, {"measurement": "viability, T/C", "setting": "second compound 0.0316 µM, first compound 0.000949 µM", "result": 105, "unit": "%"}, {"measurement": "viability, T/C", "setting": "second compound 0.0316 µM, first compound 0.003 µM", "result": 107, "unit": "%"}, {"measurement": "viability, T/C", "setting": "second compound 0.0316 µM, first compound 0.00949 µM", "result": 1.23, "unit": "%"}, {"measurement": "viability, T/C", "setting": "second compound 0.0316 µM, first compound 0.03 µM", "result": 0.23, "unit": "%"}, {"measurement": "viability, T/C", "setting": "second compound 0.0316 µM, first compound 0.0949 µM", "result": 0.16, "unit": "%"}, {"measurement": "viability, T/C", "setting": "second compound 0.0316 µM, first compound 0.3 µM", "result": 1.94, "unit": "%"}, {"measurement": "viability, T/C", "setting": "second compound 0.1 µM, first compound 0.000949 µM", "result": 121, "unit": "%"}, {"measurement": "viability, T/C", "setting": "second compound 0.1 µM, first compound 0.003 µM", "result": 116, "unit": "%"}, {"measurement": "viability, T/C", "setting": "second compound 0.1 µM, first compound 0.00949 µM", "result": 0.22, "unit": "%"}, {"measurement": "viability, T/C", "setting": "second compound 0.1 µM, first compound 0.03 µM", "result": 0.19, "unit": "%"}, {"measurement": "viability, T/C", "setting": "second compound 0.1 µM, first compound 0.0949 µM", "result": 0.18, "unit": "%"}, {"measurement": "viability, T/C", "setting": "second compound 0.1 µM, first compound 0.3 µM", "result": 0.18, "unit": "%"}, {"measurement": "viability, T/C", "setting": "second compound 0.316 µM, first compound 0.000949 µM", "result": 29.7, "unit": "%"}, {"measurement": "viability, T/C", "setting": "second compound 0.316 µM, first compound 0.003 µM", "result": 4.76, "unit": "%"}, {"measurement": "viability, T/C", "setting": "second compound 0.316 µM, first compound 0.00949 µM", "result": 0.19, "unit": "%"}, {"measurement": "viability, T/C", "setting": "second compound 0.316 µM, first compound 0.03 µM", "result": 0.14, "unit": "%"}, {"measurement": "viability, T/C", "setting": "second compound 0.316 µM, first compound 0.0949 µM", "result": 0.16, "unit": "%"}, {"measurement": "viability, T/C", "setting": "second compound 0.316 µM, first compound 0.3 µM", "result": 0.13, "unit": "%"}, {"measurement": "viability, T/C", "setting": "second compound 1 µM, first compound 0.000949 µM", "result": 0.15, "unit": "%"}, {"measurement": "viability, T/C", "setting": "second compound 1 µM, first compound 0.003 µM", "result": 0.17, "unit": "%"}, {"measurement": "viability, T/C", "setting": "second compound 1 µM, first compound 0.00949 µM", "result": 0.34, "unit": "%"}, {"measurement": "viability, T/C", "setting": "second compound 1 µM, first compound 0.03 µM", "result": 0.1, "unit": "%"}, {"measurement": "viability, T/C", "setting": "second compound 1 µM, first compound 0.0949 µM", "result": 0.1, "unit": "%"}, {"measurement": "viability, T/C", "setting": "second compound 1 µM, first compound 0.3 µM", "result": 1.57, "unit": "%"}, {"measurement": "viability, T/C", "setting": "second compound 3.16 µM, first compound 0.000949 µM", "result": 0.09, "unit": "%"}, {"measurement": "viability, T/C", "setting": "second compound 3.16 µM, first compound 0.003 µM", "result": 0.13, "unit": "%"}, {"measurement": "viability, T/C", "setting": "second compound 3.16 µM, first compound 0.00949 µM", "result": 0.12, "unit": "%"}, {"measurement": "viability, T/C", "setting": "second compound 3.16 µM, first compound 0.03 µM", "result": 0.08, "unit": "%"}, {"measurement": "viability, T/C", "setting": "second compound 3.16 µM, first compound 0.0949 µM", "result": 1.71, "unit": "%"}, {"measurement": "viability, T/C", "setting": "second compound 3.16 µM, first compound 0.3 µM", "result": 0.13, "unit": "%"}, {"measurement": "viability, T/C", "setting": "second compound 10 µM, first compound 0.000949 µM", "result": 0.08, "unit": "%"}, {"measurement": "viability, T/C", "setting": "second compound 10 µM, first compound 0.003 µM", "result": 0.13, "unit": "%"}, {"measurement": "viability, T/C", "setting": "second compound 10 µM, first compound 0.00949 µM", "result": 0.15, "unit": "%"}, {"measurement": "viability, T/C", "setting": "second compound 10 µM, first compound 0.03 µM", "result": 0.11, "unit": "%"}, {"measurement": "viability, T/C", "setting": "second compound 10 µM, first compound 0.0949 µM", "result": 2.22, "unit": "%"}, {"measurement": "viability, T/C", "setting": "second compound 10 µM, first compound 0.3 µM", "result": 0.2, "unit": "%"}]}
{"smiles": "CC1(C)CCC(CN2CCN(c3ccc(C(=O)NS(=O)(=O)c4ccc(NCC5CCOCC5)c([N+](=O)[O-])c4)c(Oc4cnc5[nH]ccc5c4)c3)CC2)=C(c2ccc(Cl)cc2)C1", "values": [{"measurement": "viability, T/C", "setting": "compound 0.0316 µM", "result": "88.4% and 102%"}, {"measurement": "viability, T/C", "setting": "compound 0.1 µM", "result": "95.6% and 102%"}, {"measurement": "viability, T/C", "setting": "compound 0.316 µM", "result": "97.5% and 98.5%"}, {"measurement": "viability, T/C", "setting": "compound 1 µM", "result": "90.2% and 96.7%"}, {"measurement": "viability, T/C", "setting": "compound 3.16 µM", "result": "86.7% and 87.4%"}, {"measurement": "IC50", "setting": "curve of compound", "result": "5250 nM and > 10000 nM"}]}
